Results published in PMC9257893 (The Onderstepoort Journal of Veterinary Research, 2022).
Several values for one entry are separate records, joined by “and”; a condition that tells them apart may be missing. Identical values can stand only once. Like-named read-outs stand apart in the source and are kept apart here.

Key:
[1] = Gyps vultures; cited from earlier work
[2] = set-up: method as in Naidoo et al. [2007]; details: Cape Griffon Vulture; ref Naidoo et al. [2007]; cited from earlier work
[3] = Diclofenac plasma pharmacokinetics in chickens after IV dosing (HPLC, non-compartmental); details: for AUC(0-inf): AUCinf; for AUC(0-t): AUClast
Protocol: Birds still alive after 15 days were terminated by sedation and carbon dioxide asphyxiation.
Scheduled and unscheduled deaths were submitted to the University of Pretoria Paraclinical Department, section of veterinary pathology, for full gross and histological evaluation. Where needed, samples were collected in 10% buffered formalin, sectioned and stained via haematoxylin & eosin (H&E) technique and subjected to histopathologic examination.
Samples were analysed at the University of Pretoria, Veterinary, Paraclinical Department, toxicology and pharmacology laboratory. […] In short, 200 μL of plasma was placed in a 2-mL tube, followed sequentially by 400 μL of diethyl ether and 400 μL of potassium dihydrogen phosphate (0.3 M and pH 3.5). […] The separated organic phase was dried under nitrogen flow at 50 °C until dry.
For analysis, 30 μL was injected at […], and detection at 275 nm.
Concentration-time data generated following HPLC analysis was dose equalised to 1 mg/kg and evaluated by non-compartmental modelling (Kinetica 5.1, Thermo Scientific). The pharmacokinetic parameters maximum plasma concentration (Cmax) and time to maximum plasma concentration (Tmax) were read off the curve.
Area under the plasma curve extrapolated to infinity was calculated as: • AUCinf=AUClast+AUCextra, [Eqn 3] where AUCextra=Clast/β,Clast
is the last measured concentration and β is the terminal elimination portion of the curve gradient, on a natural logarithmic scale.
The half-life of elimination (T1/2) was calculated as: • T1/2=Ln 2/β. [Eqn 4]
Whole plasma clearance (Cl) was calculated as: • Cl=Dose/AUClast. [Eqn 5]
Volume of distribution (Vd) was calculated as: • Vd=Dose/CP0, [Eqn 6] where CP0 was the calculated concentration at time 0.
The mean residence time (MRT) was calculated as: • MRT=Dose Cp0/β. [Eqn 7]

[4] = pigeon; cited from earlier work
[5] = set-up: method as in Naidoo et al. [2007]; details: African White-backed Vulture; ref Naidoo et al. [2007]; cited from earlier work
[6] = in vivo, iv, 1 mg/kg, control group (diclofenac IV alone), birds alive, GM, dose corrected to 1 mg/kg
[7] = in vivo, iv, 1 mg/kg, control group (diclofenac IV alone), birds dead, GM, dose corrected to 1 mg/kg
[8] = in vivo, iv, test group (fluconazole + diclofenac IV), birds alive, GM, dose corrected to 1 mg/kg
[9] = test group (fluconazole + diclofenac IV), birds alive, GM, dose corrected to 1 mg/kg
[10] = test group (fluconazole + diclofenac IV), birds dead, GM, dose corrected to 1 mg/kg

Question: With `O=C(O)Cc1ccccc1Nc1c(Cl)cccc1Cl` [diclofenac, diclofenac sodium] as the compound, how does the T1/2 [1] read?
Answer: Its T1/2 is > 7 h.

Question: What about the MRT [2] of the same compound?
Answer: Its MRT is 15.11 h.

Question: What about the T1/2 [2] of the same compound?
Answer: The T1/2 was 12.24 h.

Question: What about the Cmax ([3]; chicken (Gallus gallus domesticus), in vivo, iv, mean Cmax, mean value stated in text, chickens, IV diclofenac) of the same compound?
Answer: Its Cmax is 510 ng/mL.

Question: What about the Tmax ([3]; chicken (Gallus gallus domesticus), in vivo, iv, mean Tmax, mean value stated in text, chickens, IV diclofenac) of the same compound?
Answer: The Tmax was 0.38 h.

Question: What about the “Lz (terminal elimination phase rate constant)” value (“Lz” for short) ([3]; control group (diclofenac IV alone), birds alive, GM) of the same compound?
Answer: The value was 0.88 h⁻¹.

Question: What about the AUMClast ([3]; control group (diclofenac IV alone), birds alive, GM, dose corrected to 1 mg/kg) of the same compound?
Answer: The AUMClast was 0.35 μg/mL*(h)^2.

Question: And the “Lz” value ([3]; control group (diclofenac IV alone), birds dead, GM)?
Answer: The value was 0.34 h⁻¹.

Question: And the AUMClast ([3]; control group (diclofenac IV alone), birds dead, GM, dose corrected to 1 mg/kg)?
Answer: The AUMClast was 0.27 μg/mL*(h)^2.

Question: What about the “T1/2 of individual birds” value ([3]; control group birds receiving the two highest doses) of the same compound?
Answer: Its value is 7.01 h and 2.75 h.

Question: What about the AUC(0-inf) [3, 6] of the same compound?
Answer: Its AUC(0-inf) is 570 ng·h/mL.

Question: What about the AUC(0-inf) [3, 7] of the same compound?
Answer: Its AUC(0-inf) is 760 ng·h/mL.

Question: What about the AUC(0-t) [3, 6] of the same compound?
Answer: Its AUC(0-t) is 460 ng·h/mL.

Question: What about the AUC(0-t) [3, 7] of the same compound?
Answer: The AUC(0-t) was 310 ng·h/mL.

Question: What about the Cmax ([3]; in vivo, iv, 1 mg/kg, Cmax, control group (diclofenac IV alone), birds alive, GM, dose corrected to 1 mg/kg) of the same compound?
Answer: Its Cmax is 520 ng/mL.

Question: And the Cmax ([3]; in vivo, iv, 1 mg/kg, Cmax, control group (diclofenac IV alone), birds dead, GM, dose corrected to 1 mg/kg)?
Answer: Its Cmax is 240 ng/mL.

Question: What about the AUC(0-inf) [3, 8] of the same compound?
Answer: Its AUC(0-inf) is 550 ng·h/mL.

Question: What about the AUC(0-inf) ([3]; in vivo, iv, test group (fluconazole + diclofenac IV), birds dead, GM, dose corrected to 1 mg/kg) of the same compound?
Answer: The AUC(0-inf) was 1130 ng·h/mL.

Question: What about the AUC(0-t) ([3]; in vivo, iv, geometric mean, control group, all birds) of the same compound?
Answer: Its AUC(0-t) is 400 ng·h/mL.

Question: What about the AUC(0-t) ([3]; in vivo, iv, geometric mean, test group (CYP inhibitor), all birds) of the same compound?
Answer: The AUC(0-t) was 500 ng·h/mL.

Question: And the AUC(0-t) [3, 8]?
Answer: The AUC(0-t) was 420 ng·h/mL.

Question: And the clearance ([3]; in vivo, iv, Cl, control group (diclofenac IV alone), birds alive, GM)?
Answer: The clearance was 29 mL/min/kg.

Question: And the clearance ([3]; in vivo, iv, Cl, control group (diclofenac IV alone), birds dead, GM)?
Answer: The clearance was 22 mL/min/kg.

Question: And the clearance ([3]; in vivo, iv, Cl, test group (fluconazole + diclofenac IV), birds alive, GM)?
Answer: Its clearance is 30.5 mL/min/kg.

Question: And the clearance ([3]; in vivo, iv, Cl, test group (fluconazole + diclofenac IV), birds dead, GM)?
Answer: Its clearance is 14.7 mL/min/kg.

Question: And the Cmax ([3]; in vivo, iv, Cmax, geometric mean, control group, all birds)?
Answer: The Cmax was 410 ng/mL.

Question: What about the Cmax ([3]; in vivo, iv, Cmax, geometric mean, test group (CYP inhibitor), all birds) of the same compound?
Answer: Its Cmax is 610 ng/mL.

Question: What about the Cmax ([3]; in vivo, iv, Cmax, test group (fluconazole + diclofenac IV), birds dead, GM, dose corrected to 1 mg/kg) of the same compound?
Answer: Its Cmax is 1240 ng/mL.

Question: And the MRT ([3]; in vivo, iv, control group (diclofenac IV alone), birds alive, GM)?
Answer: Its MRT is 1.17 h.

Question: What about the MRT ([3]; in vivo, iv, control group (diclofenac IV alone), birds dead, GM) of the same compound?
Answer: The MRT was 3.14 h.

Question: And the MRT ([3]; in vivo, iv, test group (fluconazole + diclofenac IV), birds alive, GM)?
Answer: Its MRT is 1.34 h.

Question: And the MRT ([3]; in vivo, iv, test group (fluconazole + diclofenac IV), birds dead, GM)?
Answer: Its MRT is 1.33 h.

Question: And the half-life ([3]; in vivo, iv, T1/2, control group (diclofenac IV alone), birds alive, GM)?
Answer: Its half-life is 0.79 h.

Question: What about the half-life ([3]; in vivo, iv, T1/2, test group (fluconazole + diclofenac IV), birds alive, GM) of the same compound?
Answer: Its half-life is 0.85 h.

Question: What about the half-life ([3]; in vivo, iv, T1/2, test group (fluconazole + diclofenac IV), birds dead, GM) of the same compound?
Answer: Its half-life is 0.96 h.

Question: And the Tmax ([3]; in vivo, iv, Tmax, control group (diclofenac IV alone), birds alive, GM)?
Answer: Its Tmax is 0.4 h.

Question: What about the Tmax ([3]; in vivo, iv, Tmax, control group (diclofenac IV alone), birds dead, GM) of the same compound?
Answer: Its Tmax is 0.4 h.

Question: What about the Tmax ([3]; in vivo, iv, Tmax, test group (fluconazole + diclofenac IV), birds alive, GM) of the same compound?
Answer: The Tmax was 0.35 h.

Question: What about the Tmax ([3]; in vivo, iv, Tmax, test group (fluconazole + diclofenac IV), birds dead, GM) of the same compound?
Answer: The Tmax was 0.25 h.

Question: What about the Vd ([3]; in vivo, iv, Vss, control group (diclofenac IV alone), birds alive, GM) of the same compound?
Answer: Its Vd is 2.04 L/kg.

Question: And the Vd ([3]; in vivo, iv, Vss, control group (diclofenac IV alone), birds dead, GM)?
Answer: Its Vd is 4.16 L/kg.

Question: And the Vd ([3]; in vivo, iv, Vss, test group (fluconazole + diclofenac IV), birds alive, GM)?
Answer: Its Vd is 2.44 L/kg.

Question: What about the Vd ([3]; in vivo, iv, Vss, test group (fluconazole + diclofenac IV), birds dead, GM) of the same compound?
Answer: Its Vd is 1.17 L/kg.

Question: And the Vd ([3]; in vivo, iv, Vz, control group (diclofenac IV alone), birds alive, GM)?
Answer: Its Vd is 1.98 L/kg.

Question: And the Vd ([3]; in vivo, iv, Vz, control group (diclofenac IV alone), birds dead, GM)?
Answer: The Vd was 3.88 L/kg.

Question: And the Vd ([3]; in vivo, iv, Vz, test group (fluconazole + diclofenac IV), birds alive, GM)?
Answer: The Vd was 2.24 L/kg.

Question: And the Vd ([3]; in vivo, iv, Vz, test group (fluconazole + diclofenac IV), birds dead, GM)?
Answer: Its Vd is 1.23 L/kg.

Question: And the clearance ([3]; in vivo, iv, clearance, geometric mean, control group, all birds)?
Answer: Its clearance is 26.5 mL/min/kg.

Question: What about the clearance ([3]; in vivo, iv, clearance, geometric mean, test group (CYP inhibitor), all birds) of the same compound?
Answer: Its clearance is 25.3 mL/min/kg.

Question: And the “Lz” value ([3]; test group (fluconazole + diclofenac IV), birds alive, GM)?
Answer: The value was 0.82 h⁻¹.

Question: And the AUMClast [3, 9]?
Answer: The AUMClast was 0.34 μg/mL*(h)^2.

Question: And the Cmax [3, 9]?
Answer: Its Cmax is 480 ng/mL.

Question: And the “Lz” value ([3]; test group (fluconazole + diclofenac IV), birds dead, GM)?
Answer: Its value is 0.72 h⁻¹.

Question: And the AUClast [3, 10]?
Answer: The AUClast was 870 ng·h/mL.

Question: And the AUMClast [3, 10]?
Answer: The AUMClast was 0.63 μg/mL*(h)^2.

Question: What about the T1/2 [4] of the same compound?
Answer: Its T1/2 is < 7 h.

Question: And the MRT [5]?
Answer: The MRT was 26.10 h.

Question: What about the T1/2 [5] of the same compound?
Answer: The T1/2 was 16.78 h.
